# Data as given in BindingDB's records for doi:10.1021/jm050292k (Maxim Pharmaceuticals, 2005).
# Key:
# [1] = Caspase-3 activation activity tested in DLD1 colon cells done for 24 or 48 hr at 37 degree C
# [2] = Caspase-3 activation activity tested in T47D breast cells done for 24 or 48 hr at 37 degree C
# [3] = Caspase-3 activation activity tested in H1299 lung cancer cells done for 24 or 48 hr at 37 degree C
# [4] = Caspase activation activity of compound in cell line H-1299 nonsmall-cell lung cancer cells
# [5] = Caspase-3 activation activity tested in […] cancer cells done for 24 or 48 hr at 37 degree C
# [6] = Caspase-3 activation activity tested in LnCap cancer cells done for 24 or 48 hr at 37 degree C
# [7] = Caspase-3 activation activity tested in ZR-75-1 cancer cells done for 24 or 48 hr at 37 degree C
# [8] = Caspase-3 activation activity tested in HT-29 cancer cells done for 24 or 48 hr at 37 degree C
EC50 [1] [nM],EC50 [2] [nM],EC50 [3] [nM],EC50 [4] [nM],EC50 [5] [nM],EC50 [6] [nM],EC50 [7] [nM],EC50 [8] [nM],SMILES
830,1080,> 10000,–,–,–,–,–,"Clc1ccc(-c2noc(-c3occc3Br)n2)cc1 [5-(3-Bromo-furan-2-yl)-3-(4-chloro-phenyl)-[1,2,4]oxadiazole]"
280,900,> 10000,–,–,–,–,–,"FC(F)(F)c1cccc(-c2noc(-c3sccc3Cl)n2)c1 [5-(3-Chloro-thiophen-2-yl)-3-(3-trifluoromethyl-phenyl)-[1,2,4]oxadiazole]"
1420,3660,> 10000,–,–,–,–,–,"Cc1ccc(-c2noc(-c3sccc3Cl)n2)cc1 [5-(3-Chloro-thiophen-2-yl)-3-p-tolyl-[1,2,4]oxadiazole]"
–,> 40000,> 40000,–,–,–,–,–,"FC(F)(F)c1ccc(-c2noc(-c3ccccc3Cl)n2)cc1 [5-(2-Chloro-phenyl)-3-(4-trifluoromethyl-phenyl)-[1,2,4]oxadiazole]"
1450,4170,> 10000,–,–,–,–,–,"COc1ccc(-c2noc(-c3sccc3Cl)n2)cc1 [5-(3-Chloro-thiophen-2-yl)-3-(4-methoxy-phenyl)-[1,2,4]oxadiazole]"
240,920,> 10000,–,–,–,–,–,"FC(F)(F)c1ccc(-c2noc(-c3sccc3Cl)n2)cn1 [5-[5-(3-Chloro-thiophen-2-yl)-[1,2,4]oxadiazol-3-yl]-2-trifluoromethyl-pyridine]"
480,520,> 10000,–,–,–,–,–,"FC(F)(F)c1ccc(-c2noc(-c3occc3Cl)n2)cc1 [5-(3-Chloro-furan-2-yl)-3-(4-trifluoromethyl-phenyl)-[1,2,4]oxadiazole]"
–,1970,> 40000,–,–,–,–,–,"O=[N+]([O-])c1ccc(-c2noc(-c3occc3Cl)n2)cc1 [5-(3-Chloro-furan-2-yl)-3-(4-nitro-phenyl)-[1,2,4]oxadiazole]"
1490,1740,> 10000,–,–,–,–,–,"Clc1ccc(-c2noc(-c3occc3Cl)n2)cc1 [5-(3-Chloro-furan-2-yl)-3-(4-chloro-phenyl)-[1,2,4]oxadiazole]"
790,1770,> 40000,–,–,–,–,–,"Clc1ccc(-c2noc(-c3sccc3Cl)n2)cc1 [3-(4-Chloro-phenyl)-5-(3-chloro-thiophen-2-yl)-[1,2,4]oxadiazole]"
380,910,> 40000,–,–,–,–,–,"Cc1cc(Cl)ccc1-c1noc(-c2sccc2Cl)n1 [3-(4-chloro-2-methylphenyl)-5-(3-chlorothiophen-2-yl)-1,2,4-oxadiazole]"
1320,3320,> 10000,–,–,–,–,–,"Clc1ccc(-c2noc(-c3sccc3Br)n2)cc1 [5-(3-Bromo-thiophen-2-yl)-3-(4-chloro-phenyl)-[1,2,4]oxadiazole]"
840,1610,> 10000,–,–,–,–,–,"Clc1ccc(-c2noc(-c3occc3Br)n2)nc1 [2-[5-(3-Bromo-furan-2-yl)-[1,2,4]oxadiazol-3-yl]-5-chloro-pyridine]"
–,> 40000,> 40000,–,–,–,–,–,"Clc1ccc(-c2noc(-c3ccccc3Cl)n2)cc1 [5-(2-Chloro-phenyl)-3-(4-chloro-phenyl)-[1,2,4]oxadiazole]"
290,750,> 10000,–,–,–,–,–,"Clc1ccc(-c2noc(-c3sccc3Cl)n2)cn1 [2-Chloro-5-[5-(3-chloro-thiophen-2-yl)-[1,2,4]oxadiazol-3-yl]-pyridine]"
760,2820,> 40000,–,–,–,–,–,"Clc1ccsc1-c1nc(-c2ccccc2)no1 [5-(3-Chloro-thiophen-2-yl)-3-phenyl-[1,2,4]oxadiazole]"

EC50 [1] [nM],EC50 [2] [nM],EC50 [3] [nM],EC50 [4] [nM],EC50 [5] [nM],EC50 [6] [nM],EC50 [7] [nM],EC50 [8] [nM],SMILES
> 10000,> 40000,> 40000,–,–,–,–,–,"Clc1ccc(-c2noc(-c3cccs3)n2)cc1 [3-(4-Chloro-phenyl)-5-thiophen-2-yl-[1,2,4]oxadiazole]"
430,890,> 10000,–,–,–,–,–,"FC(F)(F)Oc1ccc(-c2noc(-c3sccc3Cl)n2)cc1 [5-(3-Chloro-thiophen-2-yl)-3-(4-trifluoromethoxy-phenyl)-[1,2,4]oxadiazole]"
> 10000,> 40000,> 40000,–,–,–,–,–,"Cc1csc(-c2nc(-c3ccc(Cl)cc3)no2)c1Cl [5-(3-Chloro-4-methyl-thiophen-2-yl)-3-(4-chloro-phenyl)-[1,2,4]oxadiazole]"
> 10000,> 40000,> 40000,–,–,–,–,–,"CCOc1ccsc1-c1nc(-c2ccc(Cl)cc2)no1 [3-(4-Chloro-phenyl)-5-(3-ethoxy-thiophen-2-yl)-[1,2,4]oxadiazole]"
> 10000,> 40000,> 40000,–,–,–,–,–,"Cc1ccc(-c2noc(-c3cccs3)n2)cc1 [5-Thiophen-2-yl-3-p-tolyl-[1,2,4]oxadiazole]"
> 10000,> 40000,> 40000,–,–,–,–,–,"CN(C)c1ccc(-c2noc(-c3sccc3Cl)n2)cc1 [{4-[5-(3-Chloro-thiophen-2-yl)-[1,2,4]oxadiazol-3-yl]-phenyl}-dimethyl-amine]"
560,930,> 10000,–,–,–,–,–,"FC(F)(F)c1cc(-c2noc(-c3sccc3Cl)n2)ccc1Cl [5-(3-Chloro-thiophen-2-yl)-3-(4-chloro-3-trifluoromethyl-phenyl)-[1,2,4]oxadiazole]"
580,1110,–,> 10000,–,–,–,–,"Clc1ccc(-c2noc(-c3occc3Cl)n2)nc1 [5-Chloro-2-[5-(3-chloro-furan-2-yl)-[1,2,4]oxadiazol-3-yl]-pyridine]"
370,1410,> 10000,–,–,–,–,–,"Clc1ccc(-c2noc(-c3sccc3Cl)n2)cc1Cl [5-(3-chlorothiophen-2-yl)-3-(3,4-dichlorophenyl)-1,2,4-oxadiazole]"
440,1210,> 40000,–,> 10000,> 10000,3340,760,"FC(F)(F)c1ccc(-c2noc(-c3sccc3Cl)n2)cc1 [5-(3-Chloro-thiophen-2-yl)-3-(4-trifluoromethyl-phenyl)-[1,2,4]oxadiazole]"
410,1440,> 10000,–,–,–,–,–,"FC(F)(F)c1ccc(-c2noc(-c3sccc3Cl)n2)nc1 [2-[5-(3-Chloro-thiophen-2-yl)-[1,2,4]oxadiazol-3-yl]-5-trifluoromethyl-pyridine]"
1070,2010,> 10000,–,–,–,–,–,"FC(F)(F)c1ccc(-c2noc(-c3occc3Br)n2)cc1 [5-(3-Bromo-furan-2-yl)-3-(4-trifluoromethyl-phenyl)-[1,2,4]oxadiazole]"
390,1590,> 40000,–,–,–,–,–,"Clc1ccc(-c2noc(-c3sccc3Cl)n2)nc1 [5-Chloro-2-[5-(3-chloro-thiophen-2-yl)-[1,2,4]oxadiazol-3-yl]-pyridine]"
> 10000,17400,> 40000,–,–,–,–,–,"Clc1ccc(-c2noc(-c3ccco3)n2)cc1 [3-(4-Chloro-phenyl)-5-furan-2-yl-[1,2,4]oxadiazole]"
700,610,> 10000,–,–,–,–,–,"FC(F)(F)c1ccc(-c2noc(-c3occc3Br)n2)nc1 [2-[5-(3-Bromo-furan-2-yl)-[1,2,4]oxadiazol-3-yl]-5-trifluoromethyl-pyridine]"
